In US20110195982A1, “PREDICTIVE MARKER FOR EGFR INHIBITOR TREATMENT” (priority 2007, published 2011):

Legend:
[1] = patients with cancer, 150 mg/day; cited from earlier work
advanced NSCLC = assay: open-label, predictive marker identification Phase II study of Tarceva monotherapy; format: in vivo, human
Protocol: The selection of this dose was based on pharmacokinetic parameters, as well as the safety and tolerability profile of this dose observed in Phase I, II and III trials in heavily pre-treated patients with advanced cancer. Drug levels seen in the plasma of patients with cancer receiving the 150 mg/day dose were consistently above the average plasma concentration of 500 ng/ml targeted for clinical efficacy.
This was an open-label, predictive marker identification Phase II study. The study was conducted in approximately 26 sites in about 12 countries. 264 patients with advanced NSCLC following failure of at least one prior chemotherapy regimen were enrolled over a 12 month period. […] Dose reductions were permitted based on tolerability to drug therapy. Clinical and laboratory parameters were assessed to evaluate disease control and toxicity. Treatment continued until disease progression, unacceptable toxicity or death. The study design is depicted in FIG. 1.
The RECIST (Uni-dimensional Tumour Measurement) criteria were used to evaluate response. These criteria can be found under the following link: http://www.eortc.be/recist/
Note that: To be assigned a status of CR or PR, changes in tumour measurements must be confirmed by repeated assessments at least 4 weeks apart at any time during the treatment period.
In the case of SD, follow-up measurements must have met the SD criteria at least once after study entry at a minimum interval of 6 weeks.
In the case of maintained SD, follow-up measurements must have met the SD criteria at least once after study entry with maintenance duration of at least 12 weeks.
A regular status check every 3 months was performed either by a patient's visit to the clinic or by telephone. All deaths were recorded. At the end of the study a definitive confirmation of survival was required for each patient.

[2] = doses that provide the targeted effective concentration; cited from earlier work
NSCLC [3] = settings: single agent, after failure of standard therapy for advanced disease, versus placebo; cited from earlier work
NSCLC [4] = settings: second line after cisplatin-based first-line regimens, ECOG 0, 1 or 2, versus best supportive care; cited from earlier work
NSCLC [5] = settings: second line therapy of NSCLC; cited from earlier work
[6] = 75 patients with qRT-PCR results
[7] = 102 patients with microarray data
[8] = all 264 enrolled patients, 150 mg/day oral
[9] = of the 102 patients with microarray data

C#Cc1cccc(Nc2ncnc3cc(OCCOC)c(OCCOC)cc23)c1 [Tarceva, erlotinib]
drug levels in plasma [1]: > 0.5 µg/mL
PD (advanced NSCLC; [6]): 52%
partial response (PR) (advanced NSCLC; [6]): 5%
Best Response SD, n (%) (advanced NSCLC; [7]): 31 (30.4%)
Clinical Benefit YES, n (%) (advanced NSCLC; [7]): 21 (20.6%)
clinical benefit (objective response or stable disease for 12 weeks or more) (advanced NSCLC; [8]): 31.4%
median overall survival (advanced NSCLC; [8]): 7.6 (CI 7-9) months
median progression-free survival (advanced NSCLC; [8]): 11.3 (CI 8-12) weeks
patients achieving an objective response (advanced NSCLC; all 264 enrolled patients, 150 mg/day oral, RECIST): 13.6%
number of partial responders (PR) (advanced NSCLC; [9]): 6
number of patients with PD (advanced NSCLC; [9]): 49
number of patients with SD (advanced NSCLC; [9]): 31
patients achieving a CR (advanced NSCLC; [9]): no patients achieving a CR
safety and tolerability [2]: safe and generally well tolerated
survival of NSCLC patients (NSCLC [3]): significantly prolongs and improves the survival

CC(=O)O[C@@]12CO[C@@H]1C[C@H](O)[C@@]1(C)C(=O)[C@H](O)C3=C(C)[C@@H](OC(=O)[C@H](O)[C@@H](NC(=O)OC(C)(C)C)c4ccccc4)C[C@@](O)([C@@H](OC(=O)c4ccccc4)[C@H]21)C3(C)C [docetaxel]
survival (NSCLC [4]): improved survival

Nc1nc2[nH]cc(CCc3ccc(C(=O)N[C@@H](CCC(=O)O)C(=O)O)cc3)c2c(=O)[nH]1 [pemetrexed]
efficacy compared with docetaxel (NSCLC [5]): clinically equivalent efficacy
side effects compared with docetaxel (NSCLC [5]): significantly fewer side effects
